Data as given in patent publication US20050043280A1, “Use of active ingredients having a mu-opioid receptor agonist action and an opiod receptor antognist action, as combination drugs for the treatment of cancer” (priority 2001, published 2005).

What was measured:
[1] = test system: MCF-7 cells; experiment: Cytotoxic effects, survival rate of the cells (FIG. 3B); conditions: standardized to untreated control cells = 100%; combinations with 100 μmol DAMGO
From the text: The same cell line was used to determine the cytotoxic effects of these active ingredients by determining the rate of survival of the cells (FIG. 3B). […] TNFα was used as a positive control.
The survival rate was standardized to the number of untreated control cells representing 100%. Means±SEM from 4 repeat experiments.

[2] = test system: MCF-7 cells; experiment: DNA cleavage rate with apoptosis assay kit (FIG. 4); format: cell-based, human; conditions: 500 μmol; incubation for 24 hours
Description: In order to characterize apoptosis (cell death) in more detail, a commercial apoptosis assay kit that is in common use in science was used to measure the rate of DNA cleavage (FIG. 4).
FIG. 4 DNA cleavage rate after incubation of MCF-7 cells for 24 hours with the active ingredients at the dosages indicated on the abscissa. Means±SEM from 6 independent experiments. DNA cleavage was measured by assaying the mono- and oligonucleosomes with an apoptosis detection kit containing antihistones and anti-DNA antibodies.

[3] = test system: human MCF-7 breast cancer cells; experiment: Cell proliferation test (FIG. 3A); format: cell-based; conditions: for proliferation of MCF-7 cells compared to the untreated control: 100 or 500 μmol DAMGO, 100 μmol naloxone, 500 μmol DAMGO+100 μmol naloxone
From the text: FIG. 3A Proliferation of MCF-7 cells in vitro after treatment with 100 μmol DAMGO (solid triangles), 500 μmol DAMGO (solid squares)(left), 100 μmol naloxone (open circles) or the mixture containing 500 μmol DAMGO+100 μmol naloxone (open triangles)(right) versus untreated control cells (solid circles). Means±SEM from 4-6 repeat experiments.

[4] = test system: MCF-7 cells; experiment: Flow cytometry of annexin V and 7-AAD binding, apoptosis rate (FIG. 6); format: cell-based, human
[5] = test system: MCF-7 cells; conditions: 24 hours after treatment; 0.5, 1.0, 2.0 mmol; combination 0.5 mmol morphine+0.1 mmol naloxone and 1 mmol+1 mmol
[6] = Development of the body weight during treatment (FIG. 1B); conditions: 3 weeks of treatment as in FIG. 1A
Description: In an established pharmacological animal model, naked mice (NMRI-nu/nu; Harlan, Borchen) received a subcutaneous injection containing a cell suspension (5×10^6 cells in 300 μl per mouse) of human breast carcinoma cells (MCF-7 cell line).
A total of 5×10^6 cells were injected subcutaneously per mouse. […] The animals were treated with 10 mg/kg β-estradiol valerate (i.m.) one day before and 7 and 14 days after the injection of tumor cells. […] Tumor volume=(long diameter×short diameter^2)/2.
FIG. 1B Development of the body weight during treatment. Treatment as in 1A.

[7] = test system: MCF-7 cells; conditions: cited from earlier work
[8] = 1 mmol, 24 hours after treatment (not shown)
[9] = 2 mmol, 24 hours after treatment
[10] = 3 mmol, 24 hours after treatment

Row | Compound | survival rate of MCF-7 cells (cytotoxic effect) [1] | rate of DNA cleavage compared to the untreated control [2] | proliferation of MCF-7 cells compared to the untreated control [3] | time at which the maximal number of cells was attained ([3]; DAMGO-treated cultures) [h] | cell death in treated cultures ([3]; between 48 and 72 hours) | number of cells in late apoptosis [4, 8] | number of cells in late apoptosis [4, 9] | number of cells in late apoptosis [4, 10] | number of cells in G1 phase (block of cell cycle from G1 to S phase) [5] | body weight [6] | apoptosis in MCF-7 cells (positive control, known effect) [7]
1 | C[C@@H](NC(=O)[C@@H](N)Cc1ccc(O)cc1)C(=O)NCC(=O)N(C)[C@@H](Cc1ccccc1)C(=O)NCCO [DAMGO, (D-Ala2, N-Methyl-Phe4, Gly-ol5)enkephalin] | concentration-dependent positive effect on the survival rate | increase significantly | reduced the cell division cycle substantially in a concentration-dependent fashion | 48 | a fraction of the cells on DAMGO treatment died |  |  |  |  |  | 
2 | CN1CC[C@]23c4c5ccc(O)c4O[C@H]2[C@@H](O)C=C[C@H]3[C@H]1C5 [morphine] |  |  |  |  |  | no longer detectable | less pronounced | clear increase in the number of cells in late apoptosis | concentration-dependent increase in the number of cells in G1 phase | weight loss | 
3 | C=CCN1CC[C@]23c4c5ccc(O)c4O[C@H]2C(=O)CC[C@@]3(O)[C@H]1C5 [naloxone] | concentration-dependent positive effect on the survival rate | increase significantly | growth-inhibitory effect |  |  | no longer detectable | less pronounced | clear increase in the number of cells in late apoptosis | block the cell cycle in a similar fashion | increased slightly | 
4 | TNFα |  |  |  |  |  |  |  |  |  |  | induce apoptosis
